Test results from patent publication US20250197420A1, “MACROCYCLIC COMPOUNDS, COMPOSITIONS, AND METHODS OF USING THEREOF” (Sionna Therapeutics Inc., priority 2022, published 2025).

Tests used:
[1] = molecular target: T1, Purified recombinant NBD1 (Homo sapiens, UniProt P13569); assay: Aggregation analysis using differential static light scattering (DSLS): thermal stability of NBD1; format: binding; conditions: NBD1 0.2 mg/ml; Tagg of compound well minus average Tagg of DMSO control wells
T1 construct: Purified recombinant NBD1 was produced using previously described methods; made in house
How it was run: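 Recombinant NBD1 at 0.2 mg/ml in Tris/NaCl/MgCl2 buffer with 2 mM ATP, 2 mM DTT, 1% glycerol, pH 7.6, was incubated with compound and heated at 1 °C/min to 70 °C while static light scattering was monitored. Tagg was taken from the curve inflection point and reported as ΔTagg relative to DMSO controls.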

[2] = system: Primary human bronchial epithelial cells from a ΔF508 homozygous CF donor (CF-HBE cells); assay: TECC24 recording of CFTR-mediated transepithelial chloride transport, AUC fold over benchmark VX-809 @10 μM; format: cell-based; conditions: 48 hours incubation, AUC of forskolin-stimulated IEQ
How it was run: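 CF-HBE cells on inserts were treated with compound for 48 h at 36.5 °C, then recorded in current-clamp with benzamil 10 μM, forskolin 10 μM, and finally CFTR inhibitor-172 20 μM in pH 7.4 Hepes saline. Equivalent Cl− current AUC between forskolin and inhibitor addition is expressed as a ratio to VX-809 AUC: A <3, B 3–6, C 6–20.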

T1 sequence (P13569 423-646 limits assumed): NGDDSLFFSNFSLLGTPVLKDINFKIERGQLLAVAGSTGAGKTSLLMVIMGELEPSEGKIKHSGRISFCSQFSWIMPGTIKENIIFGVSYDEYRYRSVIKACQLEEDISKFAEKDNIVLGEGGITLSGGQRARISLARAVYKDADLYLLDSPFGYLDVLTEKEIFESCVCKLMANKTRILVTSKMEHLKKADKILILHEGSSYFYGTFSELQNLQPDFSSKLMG

SMILES	DSLS (ΔTagg) [1]	TECC (test agent AUC divided by VX-809 AUC) [2]
CC1(C)CCCC(C)(c2ccccc2)c2nnc([nH]2)-c2cc(ccc2F)Oc2c(F)cc3[nH]ccc3c2COC(=O)NC1 (stereo not drawn) [Compound 91, 23,29-Difluoro-6,10,10-trimethyl-6-phenyl-14,25-dioxa-3,4,12,20,31-pentazapentacyclo[24.3.1.12,5.016,24.017,21]hentriaconta-1(30),2,4,16(24),17(21),18,22,26,28-nonaen-13-one]	B (a value above 5 °C and less than or equal to 10 °C is marked “B”)	A (a TECC value less than 3 is marked “A”)
CC1(C)CCC(C)(c2cccc(CCC(=O)O)c2)c2cnc([nH]2)-c2cc(ccc2F)Oc2c(F)cc3[nH]ccc3c2CCOC(=O)NC1 (stereo not drawn) [Compound 92, 3-[3-(23,29-Difluoro-6,9,9-trimethyl-12-oxo-13,25-dioxa-3,11,20,31-tetrazapentacyclo[24.3.1.12,5.016,24.017,21]hentriaconta-1(30),2,4,16(24),17(21),18,22,26,28-nonaen-6-yl)phenyl]propanoic acid]	C (a value greater than 10 °C and less than or equal to 25 °C is marked “C”)	C (a value between 6 and 20 is marked “C”)
CC1(C)CCCCC(C)(c2ccccc2)c2cnc([nH]2)-c2cc(ccc2F)Oc2c(F)cc3[nH]ccc3c2COC(=O)N1 (stereo not drawn) [Compound 94, 23,29-Difluoro-6,11,11-trimethyl-6-phenyl-14,25-dioxa-3,12,20,31-tetrazapentacyclo[24.3.1.12,5.016,24.017,21]hentriaconta-1(30),2,4,16,18,21,23,26,28-nonaen-13-one]	B (a value above 5 °C and less than or equal to 10 °C is marked “B”)	A (a TECC value less than 3 is marked “A”)
Cn1nc2nc1-c1cc(ccc1F)Oc1c(F)cc3[nH]ccc3c1COC(=O)NC(C)(C)CCCCC2(C)c1ccccc1 (stereo not drawn) [Compound 102, 23,29-difluoro-3,6,11,11-tetramethyl-6-phenyl-14,25-dioxa-3,4,12,20,31-pentazapentacyclo[24.3.1.12,5.016,24.017,21]hentriaconta-1(30),2(31),4,16,18,21,23,26,28-nonaen-13-one]	B (a value above 5 °C and less than or equal to 10 °C is marked “B”)	B (a value between 3 and 6 is marked “B”)
CC(Cc1cccc(C2(C)CCCCC(C)(C)N(C)C(=O)OCc3c(c(F)cc4[nH]ccc34)Oc3ccc(F)c(c3)-c3nc2nn3C)c1)C(=O)O (stereo not drawn) [Compound 103, 3-[3-(23,29-difluoro-3,6,11,11,12-pentamethyl-13-oxo-14,25-dioxa-3,4,12,20,31-pentazapentacyclo[24.3.1.12,5.016,24.017,21]hentriaconta-1(30),2(31),4,16,18,21,23,26,28-nonaen-6-yl)phenyl]-2-methyl-propanoic acid]	C (a value greater than 10 °C and less than or equal to 25 °C is marked “C”)	A (a TECC value less than 3 is marked “A”)
CC1(c2cccc(CCC(=O)O)c2)CCCC(O)CNC(=O)CCc2c(c(F)cc3[nH]ccc23)Oc2ccc(F)c(c2)-c2ncc1[nH]2 (stereo not drawn) [Compound 106, 3-[3-(23,29-Difluoro-10-hydroxy-6-methyl-13-oxo-25-oxa-3,12,20,31-tetrazapentacyclo[24.3.1.12,5.016,24.017,21]hentriaconta-1(30),2,4,16,18,21,23,26,28-nonaen-6-yl)phenyl]propanoic acid]	C (a value greater than 10 °C and less than or equal to 25 °C is marked “C”)	B (a value between 3 and 6 is marked “B”)
CC1(c2cccc(CCC(=O)O)c2)CCCC(=O)CNC(=O)CCc2c(c(F)cc3[nH]ccc23)Oc2ccc(F)c(c2)-c2ncc1[nH]2 (stereo not drawn) [Compound 107, 3-[3-(23,29-Difluoro-6-methyl-10,13-dioxo-25-oxa-3,12,20,31-tetrazapentacyclo[24.3.1.12,5.016,24.017,21]hentriaconta-1(30),2,4,16,18,21,23,26,28-nonaen-6-yl)phenyl]propanoic acid]	C (a value greater than 10 °C and less than or equal to 25 °C is marked “C”)	B (a value between 3 and 6 is marked “B”)
CC1(c2cccc(CCC(=O)O)c2)CCCCCC(O)CNC(=O)Cc2c(c(F)cc3[nH]ccc23)Oc2ccc(F)c(c2)-c2ncc1[nH]2 (stereo not drawn) [Compound 108, 3-[3-(24,30-Difluoro-12-hydroxy-6-methyl-15-oxo-26-oxa-3,14,21,32-tetrazapentacyclo[25.3.1.12,5.017,25.018,22]dotriaconta-1(31),2,4,17,19,22,24,27,29-nonaen-6-yl)phenyl]propanoic acid]	C (a value greater than 10 °C and less than or equal to 25 °C is marked “C”)	A (a TECC value less than 3 is marked “A”)
CC1(c2cccc(CCC(=O)O)c2)CCCCCC(=O)CNC(=O)Cc2c(c(F)cc3[nH]ccc23)Oc2ccc(F)c(c2)-c2ncc1[nH]2 (stereo not drawn) [Compound 109, 3-[3-(24,30-Difluoro-6-methyl-12,15-dioxo-26-oxa-3,14,21,32-tetrazapentacyclo[25.3.1.12,5.017,25.018,22]dotriaconta-1(31),2,4,17,19,22,24,27,29-nonaen-6-yl)phenyl]propanoic acid]	C (a value greater than 10 °C and less than or equal to 25 °C is marked “C”)	B (a value between 3 and 6 is marked “B”)
CC1(c2cccc(CCC(=O)O)c2)CCCCCC(=O)NCC(O)Cc2c(c(F)cc3[nH]ccc23)Oc2ccc(F)c(c2)-c2ncc1[nH]2 (stereo not drawn) [Compound 110, 3-[3-(24,30-Difluoro-15-hydroxy-6-methyl-12-oxo-26-oxa-3,13,21,32-tetrazapentacyclo[25.3.1.12,5.017,25.018,22]dotriaconta-1(31),2,4,17,19,22,24,27,29-nonaen-6-yl)phenyl]propanoic acid]	C (a value greater than 10 °C and less than or equal to 25 °C is marked “C”)	B (a value between 3 and 6 is marked “B”)
CC1(c2cccc(CCC(=O)O)c2)CCCCCC(=O)NCC(=O)Cc2c(c(F)cc3[nH]ccc23)Oc2ccc(F)c(c2)-c2ncc1[nH]2 (stereo not drawn) [Compound 111, 3-[3-(24,30-Difluoro-6-methyl-12,15-dioxo-26-oxa-3,13,21,32-tetrazapentacyclo[25.3.1.12,5.017,25.018,22]dotriaconta-1(31),2,4,17,19,22,24,27,29-nonaen-6-yl)phenyl]propanoic acid]	C (a value greater than 10 °C and less than or equal to 25 °C is marked “C”)	C (a value between 6 and 20 is marked “C”)
CN1CC(O)CCCCCC(C)(c2cccc(CCC(=O)O)c2)c2cnc([nH]2)-c2cc(ccc2F)Oc2c(F)cc3[nH]ccc3c2CC1=O (stereo not drawn) [Compound 112, 3-[3-(24,30-Difluoro-12-hydroxy-6,14-dimethyl-15-oxo-26-oxa-3,14,21,32-tetrazapentacyclo[25.3.1.12,5.017,25.018,22]dotriaconta-1(30),2,4,17(25),18(22),19,23,27(31),28-nonaen-6-yl)phenyl]propanoic acid]	C (a value greater than 10 °C and less than or equal to 25 °C is marked “C”)	B (a value between 3 and 6 is marked “B”)
